The values that follow come from patent US11926616B2, “Aminopyrazine diol compounds as PI3K-γ inhibitors” (Incyte Corporation, priority 2018, dated 2024).

Assay [1] has as its target PI3Kγ (p110γ) Recombinant Human Protein (Homo sapiens (Human), UniProt P48736). Nature of the assay: PI3K-γ Scintillation Proximity Assay. It is filed as biochemical. The note with it: 20 μM PIP2, 2 μM ATP, 13 nM PI3Kγ, 120 min, room temperature. The source says: Example B. PI3K-γ Scintillation Proximity Assay Materials: [γ-^33P]ATP (10 mCi/mL) and Wheat Germ Agglutinin (WGA) YSi SPA Scintillation Beads was purchased from Perkin Elmer (Waltham, MA). Lipid kinase substrate, D-myo-Phosphatidylinositol 4,5-bisphosphate (PtdIns(4,5)P2)D (+)-sn-1,2-di-O-octanoylglyceryl, 3-O-phospho linked (PIP2), CAS 204858-53-7, was purchased from Echelon Biosciences (Salt Lake City, UT). PI3Kγ (p110γ) Recombinant Human Protein was purchased from Life technology (Grand Island, NY). ATP, MgCl2, DTT, EDTA, MOPS and CHAPS were purchased from Sigma Aldrich (St. Louis, MO). The kinase reaction was conducted in polystyrene 384-well Greiner Bio-one white plate from Thermo Fisher Scientific in a final volume of 25 μL. Inhibitors were first diluted serially in DMSO and added to the plate wells before the addition of other reaction components. The final concentration of DMSO in the assay was 2%. The PI3Kγ assay was carried out at room temperature in 20 mM MOPS, pH 6.7, 10 mM MgCl2, 5 mM DTT and CHAPS 0.03%. Reactions were initiated by the addition of ATP, the final reaction mixture consisted of 20 μM PIP2, 2 μM ATP, 0.5 μCi [γ-^33P] ATP, 13 nM PI3Kγ. Reactions were incubated for 120 min and terminated by the addition of 40 μL SPA beads suspended in quench buffer: 163 mM potassium phosphate pH 7.8, 20% glycerol, 25 mM EDTA. The final concentration of SPA beads is 1.0 mg/mL. After the plate sealing, plates were shaken overnight at room temperature and centrifuged at 1500 rpm for 10 min, the radioactivity of the product was determined by scintillation counting on Topcount (Perkin-Elmer). IC50 determination was performed by fitting the curve of percent of the solvent control activity versus the log of the inhibitor concentration using the GraphPad Prism 6.0 software.
A general note: SPA uses beads or plates that emit light when radiolabelled molecules are held near them.

Assay [2] addresses PI3Kδ (p110δ/p85α) Recombinant Human Protein (Homo sapiens (Human), UniProt O00329). Briefly: PI3Kδ Scintillation Proximity Assay. To be noted: 20 μM PIP2, 2 μM ATP, 3.4 nM PI3Kδ, 120 min, room temperature. It is filed as biochemical. The text has this:
Example C. PI3Kδ Scintillation Proximity Assay Materials: [γ-^33P]ATP (10 mCi/mL) and Wheat Germ Agglutinin (WGA) YSi SPA Scintillation Beads was purchased from Perkin Elmer (Waltham, MA). Lipid kinase substrate, D-myo-Phosphatidylinositol 4,5-bisphosphate (PtdIns(4,5)P2)D (+)-sn-1,2-di-O-octanoylglyceryl, 3-O-phospho linked (PIP2), CAS 204858-53-7, was purchased from Echelon Biosciences (Salt Lake City, UT). PI3Kδ (p110δ/p85α) Recombinant Human Protein was purchased from Eurofins (St Charles, MO). ATP, MgCl2, DTT, EDTA, MOPS and CHAPS were purchased from Sigma Aldrich (St. Louis, MO). The kinase reaction was conducted in polystyrene 384-well Greiner Bio-one white plate from Thermo Fisher Scientific in a final volume of 25 μL. Inhibitors were first diluted serially in DMSO and added to the plate wells before the addition of other reaction components. The final concentration of DMSO in the assay was 2%. The PI3Kδ assay was carried out at room temperature in 20 mM MOPS, pH 6.7, 10 mM MgCl2, 5 mM DTT and CHAPS 0.03%. Reactions were initiated by the addition of ATP, the final reaction mixture consisted of 20 μM PIP2, 2 μM ATP, […] [γ-^33P] ATP, 3.4 nM PI3Kδ. Reactions were incubated for 120 min and terminated by the addition of 40 μL SPA beads suspended in quench buffer: 163 mM potassium phosphate pH 7.8, 20% glycerol, 25 mM EDTA. The final concentration of SPA beads is 1.0 mg/mL. After the plate sealing, plates were shaken overnight at room temperature and centrifuged at 1500 rpm for 10 min, the radioactivity of the product was determined by scintillation counting on Topcount (PerkinElmer). IC50 determination was performed by fitting the curve of percent of the solvent control activity versus the log of the inhibitor concentration using the GraphPad Prism 6.0 software.

Assay [3] relates to Phosphorylated Ribosomal Protein S6 (RPS6) in THP-1 cells. Briefly: THP-1 RPS6 ELISA Assay. It is filed as cell-based, Human. To be noted: Homo sapiens; THP-1 cells, serum starved, 2 hours compound, 10 nM MCP-1 for 15 minutes, Phospho-RPS6 ELISA; read-out: PI3Kγ_THP1_RPS6_ELISA IC50. The procedure:
Example A. THP-1 RPS6 ELISA Assay
To measure the Phosphorylated Ribosomal Protein S6 (RPS6) in cell lysates, THP-1 cells (Human Acute Monocytic Leukemia) are purchased from ATCC (Manassas, VA) and maintained in RPMI with 10% FBS (Gibco/Life Technologies, Carlsbad, CA). For the assay, THP-1 cells are serum starved overnight in RPMI, then plated in RPMI (2×10^5 cells/well in 90 μL) into 96-well flat-bottom tissue culture treated plates (Corning, Corning, NY), in the presence or absence of a concentration range of test compounds. Covered plates are incubated for 2 hours at 37° C., 5% CO2 then treated with or without 10 nM MCP-1(MYBioSource, San Diego, CA) for 15 minutes at 37° C., 5% CO2. Plates are centrifuged at 1600 RPM and supernatants are removed. Cells are lysed in Lysis Buffer (Cell Signaling, Danvers, MA) with Protease Inhibitor (Calbiochem/EMD, Germany), PMSF (Sigma, St Louis MO), HALTS (Thermo Fisher, Rockford, IL) for 30 min on wet ice. Cell lysates are frozen at −80° C. before testing. The lysates are tested in the Human/Mouse/Rat Phospho-RPS6 ELISA (R&D Systems, Inc. Minn, MN). The plate is measured using a microplate reader (SpectraMax M5—Molecular Devices, LLC Sunnyvale, CA) set to 450 nm with a wavelength correction of 540. IC50 determination is performed by fitting the curve of inhibitor percent inhibition versus the log of the inhibitor concentration using the GraphPad Prism 5.0 software.

Chain of PI3Kδ (p110δ/p85α) Recombinant Human Protein (O00329 whole entry): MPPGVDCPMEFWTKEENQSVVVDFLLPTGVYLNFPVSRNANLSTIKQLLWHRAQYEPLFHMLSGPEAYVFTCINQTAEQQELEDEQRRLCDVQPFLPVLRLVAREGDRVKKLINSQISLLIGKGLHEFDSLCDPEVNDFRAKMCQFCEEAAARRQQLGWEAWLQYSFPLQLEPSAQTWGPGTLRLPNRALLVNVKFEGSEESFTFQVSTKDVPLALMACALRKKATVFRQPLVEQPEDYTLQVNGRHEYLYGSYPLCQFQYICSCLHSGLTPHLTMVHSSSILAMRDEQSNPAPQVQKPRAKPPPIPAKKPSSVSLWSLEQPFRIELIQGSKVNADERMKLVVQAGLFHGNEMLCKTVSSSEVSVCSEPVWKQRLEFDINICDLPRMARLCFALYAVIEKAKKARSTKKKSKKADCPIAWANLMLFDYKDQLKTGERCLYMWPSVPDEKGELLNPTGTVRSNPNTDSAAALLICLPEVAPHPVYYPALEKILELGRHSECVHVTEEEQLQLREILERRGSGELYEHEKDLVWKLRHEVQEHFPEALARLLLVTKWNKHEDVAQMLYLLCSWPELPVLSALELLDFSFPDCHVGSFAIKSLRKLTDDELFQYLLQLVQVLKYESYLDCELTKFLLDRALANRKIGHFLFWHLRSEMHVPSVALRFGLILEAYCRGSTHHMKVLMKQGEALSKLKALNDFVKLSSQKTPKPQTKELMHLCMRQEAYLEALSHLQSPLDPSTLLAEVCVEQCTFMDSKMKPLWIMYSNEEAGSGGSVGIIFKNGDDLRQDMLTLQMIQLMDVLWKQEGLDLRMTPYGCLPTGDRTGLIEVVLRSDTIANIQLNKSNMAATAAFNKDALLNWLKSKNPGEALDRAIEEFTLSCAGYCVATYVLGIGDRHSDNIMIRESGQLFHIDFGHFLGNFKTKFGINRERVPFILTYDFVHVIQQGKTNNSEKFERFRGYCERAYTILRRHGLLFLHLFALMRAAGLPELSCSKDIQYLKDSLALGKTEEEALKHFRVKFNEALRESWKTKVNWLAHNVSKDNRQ
Chain of PI3Kδ (p110δ/p85α) Recombinant Human Protein (P27986 whole entry partner): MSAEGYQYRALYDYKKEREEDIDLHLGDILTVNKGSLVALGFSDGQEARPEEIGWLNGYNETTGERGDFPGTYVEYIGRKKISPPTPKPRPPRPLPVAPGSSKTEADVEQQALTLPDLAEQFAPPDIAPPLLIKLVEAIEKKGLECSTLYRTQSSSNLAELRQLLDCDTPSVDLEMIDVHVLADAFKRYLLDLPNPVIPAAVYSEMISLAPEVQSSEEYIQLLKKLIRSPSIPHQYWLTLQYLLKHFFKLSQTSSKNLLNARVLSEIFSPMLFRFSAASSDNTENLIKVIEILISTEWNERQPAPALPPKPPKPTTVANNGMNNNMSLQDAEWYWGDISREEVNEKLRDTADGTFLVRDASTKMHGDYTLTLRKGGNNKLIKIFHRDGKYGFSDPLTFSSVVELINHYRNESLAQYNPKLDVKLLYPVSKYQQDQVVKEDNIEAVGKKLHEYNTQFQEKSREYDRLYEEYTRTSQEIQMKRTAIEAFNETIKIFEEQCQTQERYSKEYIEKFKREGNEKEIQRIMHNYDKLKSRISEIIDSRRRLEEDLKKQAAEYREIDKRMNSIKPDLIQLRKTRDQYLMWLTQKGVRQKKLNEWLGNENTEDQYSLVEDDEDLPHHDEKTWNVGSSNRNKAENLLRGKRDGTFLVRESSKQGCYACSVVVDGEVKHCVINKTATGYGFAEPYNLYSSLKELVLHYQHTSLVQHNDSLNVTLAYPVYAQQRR
Chain of PI3Kγ (p110γ) Recombinant Human Protein (P48736 whole entry): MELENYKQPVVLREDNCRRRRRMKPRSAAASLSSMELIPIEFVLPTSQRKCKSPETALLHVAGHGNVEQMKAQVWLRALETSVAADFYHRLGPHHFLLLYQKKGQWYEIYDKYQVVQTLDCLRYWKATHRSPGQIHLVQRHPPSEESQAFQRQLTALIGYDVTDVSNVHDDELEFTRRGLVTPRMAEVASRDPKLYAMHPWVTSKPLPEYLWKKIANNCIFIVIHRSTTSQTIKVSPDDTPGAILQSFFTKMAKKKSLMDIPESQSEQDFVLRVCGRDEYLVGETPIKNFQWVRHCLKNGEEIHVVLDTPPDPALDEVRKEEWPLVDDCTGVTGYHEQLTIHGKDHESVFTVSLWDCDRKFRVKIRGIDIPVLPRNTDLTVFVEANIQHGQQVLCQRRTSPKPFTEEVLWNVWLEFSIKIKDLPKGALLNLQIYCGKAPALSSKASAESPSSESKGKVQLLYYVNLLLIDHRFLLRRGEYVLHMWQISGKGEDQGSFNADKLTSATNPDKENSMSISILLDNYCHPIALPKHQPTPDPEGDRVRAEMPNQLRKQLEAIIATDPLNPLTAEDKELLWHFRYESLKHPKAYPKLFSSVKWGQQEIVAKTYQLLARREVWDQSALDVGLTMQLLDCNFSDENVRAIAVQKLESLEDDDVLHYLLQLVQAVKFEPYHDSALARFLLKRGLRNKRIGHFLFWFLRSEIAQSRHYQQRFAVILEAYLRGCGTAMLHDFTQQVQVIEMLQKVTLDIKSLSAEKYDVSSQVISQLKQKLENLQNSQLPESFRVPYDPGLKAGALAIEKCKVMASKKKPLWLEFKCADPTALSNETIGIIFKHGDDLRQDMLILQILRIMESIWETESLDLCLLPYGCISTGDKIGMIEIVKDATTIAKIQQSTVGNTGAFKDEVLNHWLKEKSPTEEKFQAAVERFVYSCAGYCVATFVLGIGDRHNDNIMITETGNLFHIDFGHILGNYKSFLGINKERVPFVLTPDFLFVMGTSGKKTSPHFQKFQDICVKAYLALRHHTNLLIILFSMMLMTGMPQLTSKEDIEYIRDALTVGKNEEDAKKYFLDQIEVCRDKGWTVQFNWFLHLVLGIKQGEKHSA

For orientation: IC50 means the concentration needed to halve the response being measured. As to `[2H]C([2H])([2H])n1nccc1-c1nc(-c2cc(C(O)(CO)C(F)(F)F)ccc2C)cnc1N` (single isomer, unassigned) [Example 1a, 2-(3-(5-Amino-6-(1-(methyl-d3)-1H-pyrazol-5-yl)pyrazin-2-yl)-4-methylphenyl)-3,3,3-trifluoropropane-1,2-diol], the results for the 50% inhibitory concentration (IC50) in assay [1], in assay [2] and in assay [3] were not above 100 nM, not above 100 nM and less than 100 nM, respectively.

For `Cc1ncc(-c2nc(-c3cc(C(O)(CO)C(F)(F)F)ccc3C)cnc2N)o1` (single isomer, unassigned) [Example 9, 2-(3-(5-Amino-6-(2-methyloxazol-5-yl)pyrazin-2-yl)-4-methylphenyl)-3,3,3-trifluoropropane-1,2-diol], the concentration for half-maximal inhibition (IC50) in assay [1] is not above 100 nM; in assay [2], not above 100 nM; in assay [3] it was less than 100 nM.

As for `Cc1ccc(C(O)(CO)C(F)(F)F)cc1-c1cnc(N)c(-n2cccn2)n1` (single isomer, unassigned) [Example 12, 2-(3-(5-Amino-6-(1H-pyrazol-1-yl)pyrazin-2-yl)-4-methylphenyl)-3,3,3-trifluoropropane-1,2-diol], the IC50 in assay [1] is not above 100 nM; in assay [2], not above 100 nM; in assay [3], less than 100 nM.

`[2H]C([2H])([2H])c1ccc(C(O)(CO)C(F)(F)F)cc1-c1cnc(N)c(-c2cnc(C)o2)n1` (single isomer, unassigned) [Example 16, 2-(3-(5-Amino-6-(2-methyloxazol-5-yl)pyrazin-2-yl)-4-(methyl-d3)phenyl)-3,3,3-trifluoropropane-1,2-diol]: the IC50 in assay [1] was not above 100 nM; in assay [2] it was not above 100 nM; in assay [3], less than 100 nM.

As for `[2H]C([2H])([2H])c1ccc(C(O)(CO)C(F)(F)F)cc1-c1cnc(N)c(C(=O)NC2CCOCC2)n1` (single isomer, unassigned) [Example 17, 3-Amino-6-(2-(methyl-d3)-5-(1,1,1-trifluoro-2,3-dihydroxypropan-2-yl)phenyl)-N-(tetrahydro-2H-pyran-4-yl)pyrazine-2-carboxamide], the concentration for half-maximal inhibition (IC50) is not above 100 nM in assay [1], not above 100 nM in assay [2] and less than 100 nM in assay [3].

With `[2H]C([2H])([2H])c1ccc(C(O)(CO)C(F)F)cc1-c1cnc(N)c(C(=O)NC23CCC(O)(CC2)C3)n1` (single isomer, unassigned) [Example 18, 3-Amino-6-(5-(1,1-difluoro-2,3-dihydroxypropan-2-yl)-2-(methyl-d3)phenyl)-N-(4-hydroxybicyclo[2.2.1]heptan-1-yl)pyrazine-2-carboxamide], the IC50 in assay [1] is not above 100 nM; in assay [2], not above 100 nM; in assay [3] it was less than 100 nM.

Consider `[2H]C([2H])([2H])c1ccc(C(O)(C(C)O)C(F)(F)F)cc1-c1cnc(N)c(C(=O)NC2CCOCC2)n1` (single isomer, unassigned) [Example 19, 3-Amino-6-(2-(methyl-d3)-5-(1,1,1-trifluoro-2,3-dihydroxybutan-2-yl)phenyl)-N-(tetrahydro-2H-pyran-4-yl)pyrazine-2-carboxamide], for which the IC50 in assay [1] is not above 100 nM; in assay [2], not above 500 nM; in assay [3], less than 500 nM.

Regarding `Cc1ccc(C(O)(CO)C(F)(F)F)cc1-c1cnc(N)c(C(=O)NC23CCC(O)(CC2)C3)n1` (single isomer, unassigned) [Example 35], the half-maximal inhibitory concentration (IC50) in assay [1] and in assay [2] was not above 100 nM throughout.

As to `Cc1ccc(C(O)(CO)C(F)(F)F)cc1-c1cnc(N)c(C(=O)N[C@H](C)CO)n1` (single isomer, unassigned) [Example 36], the 50% inhibitory concentration (IC50) in assay [1] and in assay [2] was not above 100 nM in each case.

For the compound `[2H]C([2H])([2H])c1ccc(C(O)(C(O)C(F)(F)F)C(F)(F)F)cc1-c1cnc(N)c(-c2c[nH]nc2C)n1` (stereo not drawn) [Example 20, 2-(3-(5-Amino-6-(3-methyl-1H-pyrazol-4-yl)pyrazin-2-yl)-4-(methyl-d3)phenyl)-1,1,1,4,4,4-hexafluorobutane-2,3-diol], the IC50 in assay [1] is not above 100 nM; in assay [2], not above 500 nM.
